Test results as given in patent US10736900B2, “Combinations of an FGFR inhibitor and an IGF1R inhibitor” (ASTEX THERAPEUTICS LTD, priority 2014, dated 2020).
One block for each compound: values may come before it.

Tests used:
DMS114 cells = experiment: Incucyte proliferation (% confluence over time), DMS114 cells, long-term treatment; assay type: cell-based; conditions: compound A 1 microM, BMS-754807 300 nM, GSK1838705A 1 microM, each alone
Description: The insensitive cells were isolated and profiled with the aim to determine the active signaling pathways that act as drivers for their survival and/or proliferation. Therefore, DMS114 cells, a small cell lung cancer cell line with FGFR1 amplification were plated onto 10 cm culture plates and placed in an incubator at 37° C., 5% CO2. […] In the case of the parental cells with or without DMSO control, when the cells reached the confluence close to 100% they were trypsinized and re-plated back on the plate. […] After about 2-3 weeks from the initial treatment, cells were taken out of the plate by trypsinization and passaged on new plate for further expanding.
There were also treatments of the cells with single agents with or without DMSO or treatments with DMSO alone to serve as vehicle control. The proliferation of the cells was followed using the Incucyt machine, measuring the % of confluence of the cells over time.

[1] = test system: DMS114 cells, a small cell lung cancer cell line with FGFR1 amplification; experiment: Alamar blue proliferation assay, parental DMS114 cells; assay type: cell-based; conditions: Homo sapiens, DMS-114, 96 h, Parental cells (with DMSO control), 4 days
resistant DMS114 cells [2] = experiment: Alamar blue proliferation assay, DMS114 cells resistant to compound A; assay type: cell-based
resistant DMS114 cells [3] = experiment: Incucyte proliferation, resistant DMS114 cells kept in compound A, long-term treatment; assay type: cell-based; conditions: resistant DMS114 cells kept in compound A 1 microM; GSK1838705A 1 microM; over 33 days
Description: An additional experiment was run wherein the resistant DMS114 cells were exposed to 1 microM of GSK1838705A and the growth/proliferation of the cells was monitored on the Incucyte machine. Cells were kept under this condition for over 33 days, and the medium was replaced twice a week.

[4] = test system: most sensitive cancer cell lines; experiment: Cell based proliferation assay (alamar blue assay), cancer cell lines; conditions: read-out: IC50 in the most sensitive cancer cell lines
Description: Cells were seeded in 180 μl of medium at optimized cell densities in black 96 well plates with clear flat bottom. The outer wells were filled with 180 μl of medium. Cells were incubated for 24 hours at 37° C. and 5% CO2.
Compound/medium plates were placed on a shaker for 10 minutes and then 20 μl of compound in medium was added to the cells (10× dilution). Cells were incubated at 37° C. and 5% CO2 for 4 days until alamarBlue® readout.
After 4 days of incubation with compound: Add 40 μl of alamarBlue® ready to use mix to each well. Incubate plates at 37° C. and 5% CO2. Measure plates after 4 or 6 hours of incubation (depends on cell line).

Structure (SMILES): C[C@@]1(C(=O)Nc2ccc(F)nc2)CCCN1c1nc(Nc2cc(C3CC3)[nH]n2)c2cccn2n1 [BMS-754807]
proliferation (% confluence over time), single agent (DMS114 cells): did not impact the proliferation

Structure (SMILES): CNC(=O)c1c(F)cccc1Nc1nc(Nc2cc3c(cc2OC)CCN3C(=O)CN(C)C)nc2[nH]ccc12 [GSK1838705A]
IC50 [1]: > 10000 nM
IC50 (resistant DMS114 cells [2]; Homo sapiens, DMS-114, 96 h, Resistant cells, 4 days): 2000 nM
inhibition of proliferation of resistant DMS114 cells (resistant DMS114 cells [2]; resistant DMS114 cells): strongly inhibited the proliferation of the resistant DMS114 cells
proliferation (% confluence over time), single agent (DMS114 cells): did not impact the proliferation
proliferation of resistant cells, long term treatment (resistant DMS114 cells [3]): completely blocked and over the long term treatment (>30 days) did not gain ability to grow out

IC50 [4]: < 10 nM
Structure (SMILES): COc1cc(OC)c(F)c(N(Cc2ncc[nH]2)c2ccc3ncc(-c4cnn(C)c4)nc3n2)c1 [compound B, N-(2-fluoro-3,5-dimethoxyphenyl)-N-(1H-imidazol-2-ylmethyl)-3-(1-methyl-1H-pyrazol-4-yl)pyrido[2,3-b]pyrazin-6-amine]
